Holding throughout (assay type): biochemical
In one experiment the target is T1, recombinant human VAP-1 (Homo sapiens, UniProt Q16853).
T1 construct: purchased R&D systems
T1 sequence (Q16853 1-763): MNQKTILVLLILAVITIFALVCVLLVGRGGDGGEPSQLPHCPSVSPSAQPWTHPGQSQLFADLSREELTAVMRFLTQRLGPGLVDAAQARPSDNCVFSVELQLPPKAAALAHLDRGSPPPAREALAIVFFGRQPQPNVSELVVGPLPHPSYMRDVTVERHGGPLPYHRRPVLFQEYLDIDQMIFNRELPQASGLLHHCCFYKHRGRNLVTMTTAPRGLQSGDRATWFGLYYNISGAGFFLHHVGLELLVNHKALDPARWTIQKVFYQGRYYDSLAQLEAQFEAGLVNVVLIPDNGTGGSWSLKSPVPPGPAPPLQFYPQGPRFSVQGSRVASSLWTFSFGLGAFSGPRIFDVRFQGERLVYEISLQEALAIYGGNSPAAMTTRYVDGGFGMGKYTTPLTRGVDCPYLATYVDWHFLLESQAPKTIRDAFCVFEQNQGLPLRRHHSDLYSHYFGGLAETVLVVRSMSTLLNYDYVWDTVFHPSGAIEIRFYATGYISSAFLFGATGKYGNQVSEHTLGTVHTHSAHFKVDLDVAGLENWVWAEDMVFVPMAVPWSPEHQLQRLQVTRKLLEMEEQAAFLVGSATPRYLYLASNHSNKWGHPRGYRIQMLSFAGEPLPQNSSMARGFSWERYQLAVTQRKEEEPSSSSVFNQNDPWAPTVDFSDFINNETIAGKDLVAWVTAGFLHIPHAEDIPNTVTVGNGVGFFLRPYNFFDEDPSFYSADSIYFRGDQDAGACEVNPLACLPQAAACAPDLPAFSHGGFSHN
Description: Activity evaluation on recombinant human VAP-1 (Amplex Red/HRP-coupled hydrogen peroxide assay, benzylamine substrate). The following applies: read-out: Inhibitory Activity (IC50, nM) human VAP-1. In short, it runs like this:
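Recombinant human VAP-1 in 50 mM sodium phosphate pH 7.4 preincubated 30 min at 37 °C with compound (8-point 1:3 series, <1% DMSO), then 1 mM benzylamine, 200 uM Amplex Red, 1 U/mL HRP added. H2O2-derived resorufin fluorescence (ex 544/em 590) followed 1–2 h; IC50 from four-parameter fit of rate inhibition.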

For experiment [1], the target named is T2, recombinant human MAO-A (monoamine oxidase-A) (Homo sapiens, UniProt P21397).
T2 construct: purchased Sigma-Aldrich
T2 sequence (P21397 1-527): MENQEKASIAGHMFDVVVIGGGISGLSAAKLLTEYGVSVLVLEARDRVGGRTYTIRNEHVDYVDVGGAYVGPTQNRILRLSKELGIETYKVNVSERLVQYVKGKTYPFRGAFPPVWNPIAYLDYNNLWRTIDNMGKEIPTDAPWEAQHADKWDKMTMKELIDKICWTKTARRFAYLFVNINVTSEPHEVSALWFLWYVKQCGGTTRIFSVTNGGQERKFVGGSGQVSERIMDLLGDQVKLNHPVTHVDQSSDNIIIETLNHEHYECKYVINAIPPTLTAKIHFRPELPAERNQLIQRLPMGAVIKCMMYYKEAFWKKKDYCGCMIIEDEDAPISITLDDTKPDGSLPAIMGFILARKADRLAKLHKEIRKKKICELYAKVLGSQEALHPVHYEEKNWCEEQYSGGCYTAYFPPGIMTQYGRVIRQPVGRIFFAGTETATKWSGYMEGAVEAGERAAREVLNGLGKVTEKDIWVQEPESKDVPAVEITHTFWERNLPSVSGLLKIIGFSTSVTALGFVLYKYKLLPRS
The experiment in a line: Activity evaluation on recombinant human MAO-A (Amplex Red/HRP-coupled assay, 0.5 mM tyramine substrate). The following applies: read-out: Inhibitory Activity (IC50, nM) MAO-A. An outline of the steps: (§1)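 Enzyme activity was measured as fluorescence rate (ex 544, em 590 nm) from resorufin formed by HRP-coupled H2O2 oxidation of 200 uM Amplex Red. Compounds were first incubated 30 min at 37 °C with enzyme at pH 7.4; substrates were 0.5 mM tyramine (MAO-A), 1 mM benzylamine (MAO-B) and 1 mM putrescine (DAO).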

The target of experiment [2] is T3, recombinant human MAO-B (monoamine oxidase-B) (Homo sapiens, UniProt P27338).
T3 construct: purchased Sigma-Aldrich
T3 sequence (P27338 1-520): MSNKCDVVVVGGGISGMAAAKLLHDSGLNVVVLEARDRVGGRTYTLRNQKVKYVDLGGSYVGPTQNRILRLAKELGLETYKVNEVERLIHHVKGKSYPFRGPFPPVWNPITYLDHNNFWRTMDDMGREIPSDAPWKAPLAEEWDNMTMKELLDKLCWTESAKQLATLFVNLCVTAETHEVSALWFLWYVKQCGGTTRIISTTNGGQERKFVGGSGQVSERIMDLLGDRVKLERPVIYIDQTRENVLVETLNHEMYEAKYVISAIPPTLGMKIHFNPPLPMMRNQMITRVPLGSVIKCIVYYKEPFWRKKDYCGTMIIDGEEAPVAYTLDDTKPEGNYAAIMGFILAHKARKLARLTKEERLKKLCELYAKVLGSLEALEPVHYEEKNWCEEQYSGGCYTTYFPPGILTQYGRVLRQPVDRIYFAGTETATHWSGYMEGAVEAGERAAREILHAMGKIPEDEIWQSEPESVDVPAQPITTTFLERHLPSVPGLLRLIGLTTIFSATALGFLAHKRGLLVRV
Description: Activity evaluation on recombinant human MAO-B (Amplex Red/HRP-coupled assay, 1 mM benzylamine substrate). The following applies: read-out: Inhibitory Activity (IC50, nM) MAO-B. An outline of the steps:
as §1

Experiment [3] addresses T4, recombinant human DAO (diamine oxidase) (Homo sapiens, UniProt P19801).
T4 construct: purchased R&D systems
T4 sequence (P19801 20-751): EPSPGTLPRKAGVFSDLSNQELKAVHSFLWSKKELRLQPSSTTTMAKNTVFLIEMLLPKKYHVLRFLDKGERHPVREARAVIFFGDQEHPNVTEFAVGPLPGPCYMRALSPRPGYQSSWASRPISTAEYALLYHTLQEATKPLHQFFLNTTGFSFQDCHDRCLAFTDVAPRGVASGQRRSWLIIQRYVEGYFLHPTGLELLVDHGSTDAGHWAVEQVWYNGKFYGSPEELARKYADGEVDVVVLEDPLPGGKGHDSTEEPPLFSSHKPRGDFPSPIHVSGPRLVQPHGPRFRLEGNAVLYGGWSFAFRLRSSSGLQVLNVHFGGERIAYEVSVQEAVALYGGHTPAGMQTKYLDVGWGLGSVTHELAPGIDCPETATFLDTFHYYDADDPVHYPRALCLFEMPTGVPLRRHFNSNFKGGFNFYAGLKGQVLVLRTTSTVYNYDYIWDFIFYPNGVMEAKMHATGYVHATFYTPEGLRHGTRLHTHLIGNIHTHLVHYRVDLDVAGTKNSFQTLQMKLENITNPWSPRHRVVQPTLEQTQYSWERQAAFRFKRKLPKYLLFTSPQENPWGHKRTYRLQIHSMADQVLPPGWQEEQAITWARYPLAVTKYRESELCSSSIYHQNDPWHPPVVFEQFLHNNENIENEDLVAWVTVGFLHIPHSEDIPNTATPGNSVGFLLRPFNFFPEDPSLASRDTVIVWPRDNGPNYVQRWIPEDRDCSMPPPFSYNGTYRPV
Description: Activity evaluation on recombinant human DAO (Amplex Red/HRP-coupled assay, 1 mM putrescine substrate). Particulars: read-out: Inhibitory Activity (IC50, nM) DAO. An outline of the steps:
as §1

[4] abbreviates: recombinant human VAP-1, 30 min preincubation at 37° C., 1 mM benzylamine.
[5] abbreviates: recombinant human VAP-1, benzylamine substrate.

The structures appear in SMILES notation. Where a name gives a salt, the structure may show the parent alone. Read-outs that look alike come from different tables or passages of the source.

With `CN1C(=O)CCc2cc(-c3cccc(-n4cnn(CC(CN)=C(F)F)c4=O)n3)ccc21` [Example 52, 6-[6-[1-[2-(aminomethyl)-3,3-difluoro-allyl]-5-oxo-1,2,4-triazol-4-yl]-2-pyridyl]-1-methyl-3,4-dihydroquinolin-2-one Trifluoroacetate], the IC50 (as a rule, the concentration at which inhibition is half-maximal) at recombinant human VAP-1 (setting [4]) is 0.9 nM; in experiment [1] (0.5 mM tyramine), greater than 100000 nM; in experiment [2] (1 mM benzylamine) it was 23000 nM; in experiment [3] (1 mM putrescine), 300 nM.

For the compound `CN(C)C(=O)c1cccc(-c2ccc(Cn3cnn(CC(CN)=C(F)F)c3=O)s2)c1` [Example 181, 3-[5-[[1-[2-(aminomethyl)-3,3-difluoro-allyl]-5-oxo-1,2,4-triazol-4-yl]methyl]-2-thienyl]-N,N-dimethyl-benzamide trifluoroacetate], the IC50 at recombinant human VAP-1 (setting [5]) was 2.3 nM; in experiment [1] (0.5 mM tyramine substrate), greater than 100000 nM; in experiment [2] (1 mM benzylamine substrate), greater than 100000 nM; in experiment [3] (1 mM putrescine substrate) it was greater than 10000 nM.

With `CN1C(=O)CCc2cc(-c3cc(F)c(Cn4cnn(CC(CN)=C(F)F)c4=O)s3)ccc21` [Example 301, 6-[5-[[1-[2-(aminomethyl)-3,3-difluoro-allyl]-5-oxo-1,2,4-triazol-4-yl]methyl]-4-fluoro-2-thienyl]-1-methyl-3,4-dihydroquinolin-2-one trifluoroacetate], the IC50 on recombinant human VAP-1 (setting [5]) was 0.5 nM; in experiment [1] (0.5 mM tyramine substrate), greater than 100000 nM; in experiment [2] (1 mM benzylamine substrate) it was greater than 100000 nM; in experiment [3] (1 mM putrescine substrate), 2680 nM.

Take `NCC(Cn1ncn(Cc2ccc(-c3ccc4cn[nH]c4c3)s2)c1=O)=C(F)F` [Example 127, 2-[2-(aminomethyl)-3,3-difluoro-allyl]-4-[[5-(1H-indazol-6-yl)-2-thienyl]methyl]-1,2,4-triazol-3-one Trifluoroacetate]: the IC50 on recombinant human VAP-1 (setting [4]) was 0.6 nM; in experiment [1] (0.5 mM tyramine) it was greater than 100000 nM; in experiment [2] (1 mM benzylamine), 1070 nM; in experiment [3] (1 mM putrescine), greater than 100000 nM.

For the compound `Cc1cc(C#Cc2cnc3c(c2)OCCN3)cnc1-n1cnn(CC(CN)=C(F)F)c1=O` [Example 245, 2-[2-(aminomethyl)-3,3-difluoro-allyl]-4-[5-[2-(3,4-dihydro-2H-pyrido[3,2-b][1,4]oxazin-7-yl)ethynyl]-3-methyl-2-pyridyl]-1,2,4-triazol-3-one ditrifluoroacetate], the IC50 on recombinant human VAP-1 (setting [5]) was 2.7 nM; in experiment [1] (0.5 mM tyramine substrate), greater than 100000 nM; in experiment [2] (1 mM benzylamine substrate), 15000 nM; in experiment [3] (1 mM putrescine substrate) it was 14000 nM.

As to `CC(=O)N1CCN(c2ccc(-c3ccc(Cn4cnn(CC(CN)=C(F)F)c4=O)s3)cc2)CC1` [Example 108, 4-[[5-[4-(4-acetylpiperazin-1-yl)phenyl]-2-thienyl]methyl]-2-[2-(aminomethyl)-3,3-difluoro-allyl]-1,2,4-triazol-3-one Trifluoroacetate], the IC50 on recombinant human VAP-1 (setting [4]) is 2 nM; in experiment [1] (0.5 mM tyramine), greater than 10000 nM; in experiment [2] (1 mM benzylamine), greater than 10000 nM; in experiment [3] (1 mM putrescine), 42000 nM.

On to `Cc1cc(-c2cccc(-c3cc[nH]n3)c2)cnc1-n1cnn(CC(CN)=C(F)F)c1=O` [Example 232, 2-[2-(aminomethyl)-3,3-difluoro-allyl]-4-[3-methyl-5-[3-(1H-pyrazol-3-yl)phenyl]-2-pyridyl]-1,2,4-triazol-3-one Trifluoroacetate], for which the IC50 on recombinant human VAP-1 (setting [5]) was 0.5 nM; in experiment [1] (0.5 mM tyramine substrate), greater than 100000 nM; in experiment [2] (1 mM benzylamine substrate), 1100 nM; in experiment [3] (1 mM putrescine substrate), 15000 nM.

In the case of `Cc1cc(-n2cnn(CC(CN)=C(F)F)c2=O)cnc1-c1cc(C)c2c(c1)CCC(=O)N2` [Example 80, 6-[5-[1-[2-(aminomethyl)-3,3-difluoro-allyl]-5-oxo-1,2,4-triazol-4-yl]-3-methyl-2-pyridyl]-8-methyl-3,4-dihydro-1H-quinolin-2-one Trifluoroacetate], the concentration for half-maximal inhibition (IC50) on recombinant human VAP-1 (setting [4]) was 0.4 nM; in experiment [1] (0.5 mM tyramine) it was greater than 100000 nM; in experiment [2] (1 mM benzylamine), 5300 nM; in experiment [3] (1 mM putrescine), 36 nM.

Consider `CC(=O)Nc1nc2ccc(-c3ccc(Cn4cnn(CC(CN)=C(F)F)c4=O)s3)cc2s1` [Example 131, N-[6-[5-[[1-[2-(aminomethyl)-3,3-difluoro-allyl]-5-oxo-1,2,4-triazol-4-yl]methyl]-2-thienyl]-1,3-benzothiazol-2-yl]acetamide trifluoroacetate], for which the IC50 on recombinant human VAP-1 (setting [4]) is 0.4 nM; in experiment [1] (0.5 mM tyramine) it was 7800 nM; in experiment [2] (1 mM benzylamine), 12000 nM; in experiment [3] (1 mM putrescine), greater than 100000 nM.

On to `CS(=O)(=O)c1cccc(-c2ccc(Cn3cnn(CC(CN)=C(F)F)c3=O)s2)c1` [Example 102, 2-[2-(aminomethyl)-3,3-difluoro-allyl]-4-[[5-(3-methylsulfonylphenyl)-2-thienyl]methyl]-1,2,4-triazol-3-one Trifluoroacetate], for which the IC50 at recombinant human VAP-1 (setting [4]) was 0.4 nM; in experiment [1] (0.5 mM tyramine), greater than 100000 nM; in experiment [2] (1 mM benzylamine), 5400 nM; in experiment [3] (1 mM putrescine), greater than 10000 nM.

As to `CN(C)c1ccc(-c2ccc(Cn3cnn(CC(CN)=C(F)F)c3=O)s2)cn1` [Example 112, 2-[2-(aminomethyl)-3,3-difluoro-allyl]-4-[[5-[6-(dimethylamino)-3-pyridyl]-2-thienyl]methyl]-1,2,4-triazol-3-one Trifluoroacetate], the IC50 on recombinant human VAP-1 (setting [4]) is 0.2 nM; in experiment [1] (0.5 mM tyramine) it was greater than 100000 nM; in experiment [2] (1 mM benzylamine), 26000 nM; in experiment [3] (1 mM putrescine) it was greater than 100000 nM.

Values taken from patent publication US11168073B2, “3,3-difluoroallylamines or salts thereof and pharmaceutical compositions comprising the same” (YUHAN CORPORATION, priority 2018, dated 2021).
